{"source": "patent US8268864B2", "about": "“Combination of anticholinergics and leukotriene receptor antagonists for the treatment of respiratory diseases” (Meda Pharma GmbH & Co. KG, priority 2005, dated 2012)", "key": {"[1]": {"test_system": "M1-M3 receptors", "conditions": "cited from earlier work"}, "[2]": {"target": "M3 muscarinic receptors (Homo sapiens, UniProt P20309)", "sequence (P20309 whole entry)": "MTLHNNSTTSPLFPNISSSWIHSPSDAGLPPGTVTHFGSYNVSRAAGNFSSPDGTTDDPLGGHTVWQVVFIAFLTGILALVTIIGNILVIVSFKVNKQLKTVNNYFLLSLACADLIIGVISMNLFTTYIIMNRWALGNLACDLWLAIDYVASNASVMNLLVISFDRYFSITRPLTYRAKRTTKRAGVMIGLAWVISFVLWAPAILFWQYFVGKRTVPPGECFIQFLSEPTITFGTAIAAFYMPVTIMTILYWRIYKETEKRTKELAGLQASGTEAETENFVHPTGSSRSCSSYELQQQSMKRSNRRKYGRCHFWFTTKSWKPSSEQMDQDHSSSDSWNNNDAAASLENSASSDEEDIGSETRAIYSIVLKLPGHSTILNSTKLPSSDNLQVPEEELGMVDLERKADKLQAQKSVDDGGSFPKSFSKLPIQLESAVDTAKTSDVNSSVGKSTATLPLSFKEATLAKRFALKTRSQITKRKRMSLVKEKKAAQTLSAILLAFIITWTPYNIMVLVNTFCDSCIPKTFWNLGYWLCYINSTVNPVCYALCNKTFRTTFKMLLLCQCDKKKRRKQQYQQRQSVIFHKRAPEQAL", "conditions": "kinetics studies (Haddad et al.); cited from earlier work"}, "[3]": {"conditions": "inhaled; asthmatic subjects (Makker); cited from earlier work"}, "[4]": {"test_system": "chemotactic response in the guinea pig conjunctiva", "conditions": "guinea pig conjunctiva (Chan); cited from earlier work"}, "[5]": {"test_system": "IL-2 release", "conditions": "R,R-glycopyrrolate alone, up to 10 μmol/l; TPA 25 nM / ionomycin 1 μg/ml", "excerpt": "(§1) Not only TNFα but also IL-2 plays an important role in inflammatory airway diseases. It is known that in certain forms of asthma (e.g. intrinsic and occupational), particular subsets of T cells produce, among others, IL-2 (Ricci et al.; J Investig Allergol Clin Immunol 1994; 4:214-20). Moreover, allergic patients have special populations of T cells which can be induced to secrete IL-2 (McHugh et al.; Clin Exp Allergy 1993; 23:137-44). […] Therefore, the influence of R,R-glycopyrrolate in combination with cysLT-receptor antagonists on TNFα- and interleukin(IL)-2-release was investigated by using human peripheral blood mononuclear cells (PBMCs). The investigations were approved by the University Ethics Committee according to the International Declarations of Helsinki and Tokyo.\n(§2) PBMCs were isolated from heparinized blood samples of healthy donors by density gradient centrifugation. An equal volume of Hanks buffer (Life Technologies, Heidelberg, Germany) is added to heparinized whole blood samples. 15 ml Histopaque-1077 (Sigma, Deisenhofen, Germany) are overlayed with a maximum of 40 ml of blood/Hanks mixture were centrifuged for 30 min at room temperature (2000 rpm). A visible band containing PBMCs is transferred to a fresh tube and washed twice with Hanks-buffer. […]"}, "[6]": {"test_system": "TNFα release", "conditions": "R,R-glycopyrrolate alone, up to 10 μmol/l; LPS 100 ng/ml", "excerpt": "as §1, §2"}, "[7]": {"conditions": "inhaled; asthmatic subjects (Christie); cited from earlier work"}, "[8]": {"conditions": "inhaled; asthmatic subjects (Lammers); cited from earlier work"}, "[9]": {"test_system": "IL-2 expression", "conditions": "ovalbumin-sensitized Brown Norway rats (Lin et al.); cited from earlier work"}, "[10]": {"conditions": "topically into the eyes; allergic conjunctivitis in rats (Papathanassiou et al.); cited from earlier work"}}, "data": [{"smiles": "C[N+]1(C)CCC(OC(=O)C(O)(c2ccccc2)C2CCCC2)C1", "note": "(stereo not shown) [Glycopyrrolate]", "values": [{"measurement": "selectivity in binding to the M1-M3 receptors", "setting": "[1]", "result": "no selectivity"}, {"measurement": "dissociation from M3 muscarinic receptors", "setting": "[2]", "result": "dissociates slowly"}]}, {"smiles": "COc1cc(C(=O)NS(=O)(=O)c2ccccc2C)ccc1Cc1cn(C)c2ccc(NC(=O)OC3CCCC3)cc12", "note": "[ICI 204,219]", "values": [{"measurement": "protection against exercise-induced bronchoconstriction", "setting": "[3]", "result": "protected significantly"}]}, {"smiles": "CN(C)C(=O)CCSC(SCCC(=O)O)c1cccc(/C=C/c2ccc3ccc(Cl)cc3n2)c1", "note": "(stereo not shown) [MK-571]", "values": [{"measurement": "in vivo chemotactic response", "setting": "[4]", "result": "completely inhibited"}]}, {"smiles": "C[N+]1(C)CC[C@@H](OC(=O)[C@](O)(c2ccccc2)C2CCCC2)C1.[Br-]", "note": "[R,R-glycopyrrolate]", "values": [{"measurement": "influence on stimulated IL-2 release", "setting": "[5]", "result": "had no influence"}, {"measurement": "influence on LPS-induced TNFα release", "setting": "[6]", "result": "did not influence"}]}, {"smiles": "O=C(O)CCS[C@H](c1ccccc1CCCCCCCCc1ccccc1)[C@@H](O)C(=O)O", "note": "[pobilukast (SK&F 104353), pobilukast]", "values": [{"measurement": "LT induced bronchoconstriction", "setting": "[7]", "result": "inhibited significantly"}]}, {"smiles": "CN(C)C(=O)CCS[C@H](SCCC(=O)O)c1cccc(/C=C/c2ccc3ccc(Cl)cc3n2)c1", "note": "[verlukast (MK-0679), verlukast]", "values": [{"measurement": "mean FEV1", "setting": "[8]", "result": "significant improvement"}]}, {"smiles": "COc1cc(C(=O)NS(=O)(=O)c2ccccc2C)ccc1Cc1cn(C)c2ccc(NC(=O)OC3CCCC3)cc12", "note": "[zafirlukast]", "values": [{"measurement": "IL-2 expression", "setting": "[9]", "result": "able to decrease"}, {"measurement": "development of symptoms and mediator release", "setting": "[10]", "result": "effectively inhibit"}]}]}
